Measured values taken from publication PMC11904993, “Humanized Candida and NanoBiT Assays Expedite Discovery of Bdf1 Bromodomain Inhibitors With Antifungal Potential” (Advanced Science, 2025).
Where “and” joins values, the source holds several entries; their conditions need not be identical. Equal entries are not always repeated.

Experiments:
[1] = test system: C. glabrata strains (WT, pdr1∆ or PDR1 rescue); experiment: Growth assays to assess compound efflux; format: cell-based; settings: compound 50 µM, three replicates
Protocol: Cells from a single colony were diluted in 0.85% NaCl before being counted using a Neubauer chamber. […] The effect of fluconazole was tested by titration on these strains under similar conditions.

[2] = test system: C. glabrata strains expressing WT and mutant Bdf1; experiment: Growth inhibition in liquid media, C. glabrata lab strains; settings: Fig 3E; 50 µM; WT BDF1-flag; Exp 1-3
Protocol: (§1) Growth on Liquid Media with C. glabrata Lab Strains: Cells were grown at 30 °C in SC+M+C‐U medium (SC medium with 5 mM methionine, 0.25 mM cysteine, without uracil) to an OD600 of 0.5–0.8. […] Plates were incubated at 30 °C and OD600 was measured using a Multiskan FC Microplate Photometer (Thermo Fisher).

[3] = test system: C. glabrata expressing humanized Bdf1 (Brd4 BDs); experiment: Growth inhibition in liquid media, humanized C. glabrata strains; settings: Fig 3E, 50 µM, Exp 1-3
Protocol: as §1

**Q.** Which “growth relative to Solvent = 100 (Figure S10B)” value ([1]; PDR1 Rescue) does the source give for `CCNC(=O)c1cc2c(-c3cc(C(C)(C)O)ccc3Oc3c(C)cc(F)cc3C)cn(C)c(=O)c2[nH]1` [ABBV744] here?
**A.** 73.7317 and 83.5862 and 73.3043

**Q.** And the “growth relative to Solvent = 100 (Figure S10B)” value ([1]; WT)?
**A.** 66.394 and 67.598 and 72.0455

**Q.** What about the “growth relative to Solvent = 100 (Figure S10B)” value ([1]; pdr1∆) of the same compound?
**A.** 59.2642 and 64.761 and 73.9837

**Q.** What about the “%Growth” value [2] of the same compound?
**A.** 90% and 89% and 91%

**Q.** And the “%Growth” value ([3]; BDF1-hBD1-flag)?
**A.** 90% and 85% and 80%

**Q.** What about the “%Growth” value ([3]; BDF1-hBD2-flag) of the same compound?
**A.** 38% and 32% and 37%

**Q.** And the “%Growth” value ([3]; humanized BDF1-flag)?
**A.** 41% and 39%
